Measurements published in publication PMC4577212, “X-Ray Structure and Mutagenesis Studies of the N-Isopropylammelide Isopropylaminohydrolase, AtzC” (PLoS ONE, 2015).

Biological target: T1, AtzC (N-isopropylammelide isopropylaminohydrolase) (Pseudomonas sp. ADP, UniProt O52063)
T1 construct: full length, N-terminal His-tag (pETCC2, from pET14b), expressed in E. coli BL21(DE3); tag cut with thrombin for crystals; homotetramer ~210 kDa; Zn enzyme
T1 sequence (O52063 1-403): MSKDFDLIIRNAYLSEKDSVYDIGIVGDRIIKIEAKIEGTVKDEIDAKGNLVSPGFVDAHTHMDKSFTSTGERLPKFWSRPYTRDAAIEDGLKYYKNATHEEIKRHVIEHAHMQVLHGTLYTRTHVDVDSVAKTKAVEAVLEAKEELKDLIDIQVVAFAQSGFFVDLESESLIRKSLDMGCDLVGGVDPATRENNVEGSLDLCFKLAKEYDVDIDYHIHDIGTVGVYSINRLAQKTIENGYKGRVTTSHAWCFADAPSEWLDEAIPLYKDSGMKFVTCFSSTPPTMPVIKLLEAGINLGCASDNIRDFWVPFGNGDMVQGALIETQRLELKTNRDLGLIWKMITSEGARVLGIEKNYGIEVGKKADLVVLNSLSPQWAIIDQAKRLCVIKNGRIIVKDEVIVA
Experiment: X-ray crystal structure, […] Å
Assay type: binding
Settings: crystals from 2.4 M sodium malonate pH 7; active site; tag cut with thrombin

## O=C(O)CC(=O)O [malonic acid]
  X-ray crystal structure, 1.84 Å: The malonate (a poor inhibitor of AtzC, Figure E in S1 File) adopts a planar conformation
